From publication PMC5218480 (PLoS ONE, 2017)

System: MV-4-11 cells
Experiment: Gene expression microarray analysis (Affymetrix PrimeView) and GSEA
Format: cell-based, human
Parameters: RFU PODN (11730768_x_at) / Fold change /veh PODN (11730768_x_at) / RFU LINC00158 (11744669_a_at) / Fold change /veh LINC00158 (11744669_a_at) / RFU DUSP10 (11751237_a_at) / Fold change /veh DUSP10 (11751237_a_at) / RFU ID3 (11757404_x_at) / Fold change /veh ID3 (11757404_x_at) / RFU PLEKHG5 (11737974_s_at) / Fold change /veh PLEKHG5 (11737974_s_at) / RFU LRRC4B (11730491_at) / Fold change /veh LRRC4B (11730491_at) / RFU GIMAP4 (11747438_a_at) / Fold change /veh GIMAP4 (11747438_a_at) / RFU KRT8 (11758183_x_at) / Fold change /veh KRT8 (11758183_x_at) / RFU CNN1 (11734310_a_at) / Fold change /veh CNN1 (11734310_a_at) / RFU VPS37D (11726825_at) / Fold change /veh VPS37D (11726825_at) / RFU C10orf10 (11716522_x_at) / Fold change /veh C10orf10 (11716522_x_at) / RFU KIR2DL2 /// KIR2DL4 /// KIR2DL5A /// KIR2DL5B /// KIR2DS1 /// KIR2DS2 /// KIR2DS3 /// KIR2DS4 /// KIR3DL3 /// KIR3DL3 /// KIR3DS1 (11738374_at) / Fold change /veh KIR2DL2 /// KIR2DL4 /// KIR2DL5A /// KIR2DL5B /// KIR2DS1 /// KIR2DS2 /// KIR2DS3 /// KIR2DS4 /// KIR3DL3 /// KIR3DL3 /// KIR3DS1 (11738374_at) / RFU C1QL1 (11718748_at) / Fold change /veh C1QL1 (11718748_at) / RFU TMPRSS4 (11747572_a_at) / Fold change /veh TMPRSS4 (11747572_a_at) / RFU HAMP (11756126_x_at) / Fold change /veh HAMP (11756126_x_at) / RFU RNFT2 (11725882_a_at) / Fold change /veh RNFT2 (11725882_a_at) / RFU NR4A2 (11747474_a_at) / Fold change /veh NR4A2 (11747474_a_at) / RFU ABCC12 (11746883_a_at) / Fold change /veh ABCC12 (11746883_a_at) / RFU TMEM136 (11760407_x_at) / Fold change /veh TMEM136 (11760407_x_at) / RFU CLDN22 /// WWC2 (11732394_at) / Fold change /veh CLDN22 /// WWC2 (11732394_at) / RFU HLA-DPB1 (11760878_x_at) / Fold change /veh HLA-DPB1 (11760878_x_at) / RFU SPINT1 (11716480_a_at) / Fold change /veh SPINT1 (11716480_a_at) / RFU GAP43 (11754022_s_at) / Fold change /veh GAP43 (11754022_s_at) / RFU A4GNT (11735810_at) / Fold change /veh A4GNT (11735810_at) / RFU PRB3 (11715151_x_at) / Fold change /veh PRB3 (11715151_x_at) / RFU TUBB4B (11761932_at) / Fold change /veh TUBB4B (11761932_at) / RFU CAPN14 (11732068_a_at) / Fold change /veh CAPN14 (11732068_a_at) / RFU TMCC2 (11721928_a_at) / Fold change /veh TMCC2 (11721928_a_at) / RFU IRGQ (11745062_a_at) / Fold change /veh IRGQ (11745062_a_at) / RFU FAM174B (11720279_a_at) / Fold change /veh FAM174B (11720279_a_at) / RFU TMPRSS4 (11748680_a_at) / Fold change /veh TMPRSS4 (11748680_a_at) / RFU FAM212B (11763350_a_at) / Fold change /veh FAM212B (11763350_a_at) / RFU PLEKHG5 (11743358_a_at) / Fold change /veh PLEKHG5 (11743358_a_at) / RFU ZSCAN30 (11745921_a_at) / Fold change /veh ZSCAN30 (11745921_a_at) / RFU CMKLR1 (11741424_a_at) / Fold change /veh CMKLR1 (11741424_a_at) / RFU LOC101060620 /// MAPK8IP1 (11723275_at) / Fold change /veh LOC101060620 /// MAPK8IP1 (11723275_at) / RFU SPTSSB (11747773_x_at) / Fold change /veh SPTSSB (11747773_x_at) / RFU PRSS12 (11739890_at) / Fold change /veh PRSS12 (11739890_at) / RFU BIN1 (11741810_x_at) / Fold change /veh BIN1 (11741810_x_at) / RFU WNT11 (11732464_a_at) / Fold change /veh WNT11 (11732464_a_at) / RFU C10orf10 (11716521_a_at) / Fold change /veh C10orf10 (11716521_a_at) / RFU C5orf56 (11738089_at) / Fold change /veh C5orf56 (11738089_at) / RFU CYB561 (11721691_x_at) / Fold change /veh CYB561 (11721691_x_at) / RFU ANKRD19P (11752326_a_at) / Fold change /veh ANKRD19P (11752326_a_at) / RFU OR2T12 /// OR2T33 /// OR2T8 (11738714_s_at) / Fold change /veh OR2T12 /// OR2T33 /// OR2T8 (11738714_s_at) / RFU VCAN (11748164_a_at) / Fold change /veh VCAN (11748164_a_at) / RFU JSRP1 (11732532_at) / Fold change /veh JSRP1 (11732532_at) / RFU KRTAP10-11 (11738290_x_at) / Fold change /veh KRTAP10-11 (11738290_x_at) / RFU MYO3A (11730013_a_at) / Fold change /veh MYO3A (11730013_a_at) / RFU EBF3 (11725865_a_at) / Fold change /veh EBF3 (11725865_a_at) / RFU CAMK2N1 (11719241_x_at) / Fold change /veh CAMK2N1 (11719241_x_at) / RFU C5orf56 (11738088_a_at) / Fold change /veh C5orf56 (11738088_a_at) / RFU OLFML3 (11715873_a_at) / Fold change /veh OLFML3 (11715873_a_at) / RFU LOC100653217 /// NTM (11731650_a_at) / Fold change /veh LOC100653217 /// NTM (11731650_a_at) / RFU MAPK11 (11762145_a_at) / Fold change /veh MAPK11 (11762145_a_at) / RFU FIZ1 (11724087_x_at) / Fold change /veh FIZ1 (11724087_x_at) / RFU OASL (11726364_x_at) / Fold change /veh OASL (11726364_x_at) / RFU SOX15 (11748057_x_at) / Fold change /veh SOX15 (11748057_x_at) / RFU CD79A (11719716_a_at) / Fold change /veh CD79A (11719716_a_at) / RFU HIST1H1D (11736915_at) / Fold change /veh HIST1H1D (11736915_at) / RFU CASKIN2 (11723855_a_at) / Fold change /veh CASKIN2 (11723855_a_at) / RFU LOC730098 (11760151_x_at) / Fold change /veh LOC730098 (11760151_x_at) / RFU OR4N2 (11742367_at) / Fold change /veh OR4N2 (11742367_at) / RFU PRRT2 (11749266_a_at) / Fold change /veh PRRT2 (11749266_a_at) / RFU SNX32 (11753110_a_at) / Fold change /veh SNX32 (11753110_a_at) / RFU CDHR5 (11726645_a_at) / Fold change /veh CDHR5 (11726645_a_at) / RFU RCAN1 (11760418_a_at) / Fold change /veh RCAN1 (11760418_a_at) / RFU FAM167A (11723789_a_at) / Fold change /veh FAM167A (11723789_a_at) / RFU FAM26E (11764081_at) / Fold change /veh FAM26E (11764081_at) / RFU ISYNA1 (11749810_s_at) / Fold change /veh ISYNA1 (11749810_s_at) / RFU ACY1 (11761880_at) / Fold change /veh ACY1 (11761880_at) / RFU 11764098_at / Fold change /veh 11764098_at / RFU SAMD14 (11745864_x_at) / Fold change /veh SAMD14 (11745864_x_at) / RFU NPB (11741838_a_at) / Fold change /veh NPB (11741838_a_at) / RFU TMPRSS6 (11731388_a_at) / Fold change /veh TMPRSS6 (11731388_a_at) / RFU KRTAP10-2 (11738614_at) / Fold change /veh KRTAP10-2 (11738614_at) / RFU ARHGAP8 /// PRR5-ARHGAP8 (11727945_x_at) / Fold change /veh ARHGAP8 /// PRR5-ARHGAP8 (11727945_x_at) / RFU KRTAP5-7 /// NADSYN1 (11734609_at) / Fold change /veh KRTAP5-7 /// NADSYN1 (11734609_at) / RFU RASL12 (11751679_a_at) / Fold change /veh RASL12 (11751679_a_at) / RFU CDKN2B (11736163_a_at) / Fold change /veh CDKN2B (11736163_a_at) / RFU PRF1 (11729649_at) / Fold change /veh PRF1 (11729649_at) / RFU, ZNF638 /// ZNF638-IT1 / Fold change vs veh, ZNF638 /// ZNF638-IT1 / RFU, PANK3 / Fold change vs veh, PANK3 / RFU, SH3YL1 / Fold change vs veh, SH3YL1 / RFU, ZEB2 / Fold change vs veh, ZEB2 / RFU, NRIP1 / Fold change vs veh, NRIP1 / RFU, PTTG1IP / Fold change vs veh, PTTG1IP / RFU, CAPN2 / Fold change vs veh, CAPN2 / RFU, MED14 / Fold change vs veh, MED14 / RFU, SNORA58 / Fold change vs veh, SNORA58 / RFU, C1orf63 / Fold change vs veh, C1orf63 / RFU, LRRFIP1 / Fold change vs veh, LRRFIP1 / RFU, NDUFAF7 / Fold change vs veh, NDUFAF7 / RFU, SLC12A2 / Fold change vs veh, SLC12A2 / RFU, IBTK / Fold change vs veh, IBTK / RFU, ESF1 / Fold change vs veh, ESF1 / Fold change vs veh, TMEM50B / RFU, TAOK1 / Fold change vs veh, TAOK1 / RFU, ACBD3 / Fold change vs veh, ACBD3 / RFU, TMA16 / Fold change vs veh, TMA16 / RFU, RWDD3 / Fold change vs veh, RWDD3 / RFU, BCAT1 / Fold change vs veh, BCAT1 / RFU, EDEM3 / Fold change vs veh, EDEM3 / RFU, TMEM33 / Fold change vs veh, TMEM33 / RFU, WDR75 / Fold change vs veh, WDR75 / RFU, AHCTF1 / Fold change vs veh, AHCTF1 / RFU, TFRC / Fold change vs veh, TFRC / RFU, ZDHHC17 / Fold change vs veh, ZDHHC17 / RFU, NOM1 / Fold change vs veh, NOM1 / RFU, ARL8B / Fold change vs veh, ARL8B / RFU, ZBTB11 / Fold change vs veh, ZBTB11 / RFU, TAMM41 / Fold change vs veh, TAMM41 / RFU, KIAA1704 /// LOC100996395 / Fold change vs veh, KIAA1704 /// LOC100996395 / RFU, ING1 / Fold change vs veh, ING1 / RFU, TRMT61B / Fold change vs veh, TRMT61B / RFU, FUBP3 / Fold change vs veh, FUBP3 / RFU, TP53 / Fold change vs veh, TP53 / RFU, TNKS2 / Fold change vs veh, TNKS2 / RFU, ZFP14 / Fold change vs veh, ZFP14 / RFU, ACTR2 / Fold change vs veh, ACTR2 / RFU, PPP3R1 / Fold change vs veh, PPP3R1 / RFU, PIK3R1 / Fold change vs veh, PIK3R1 / RFU, HNRNPA1 / Fold change vs veh, HNRNPA1 / RFU, RNF170 / Fold change vs veh, RNF170 / RFU, ZNF28 / Fold change vs veh, ZNF28 / RFU, RNGTT / Fold change vs veh, RNGTT / RFU, OGT / Fold change vs veh, OGT / RFU, BRD1 / Fold change vs veh, BRD1 / RFU, MARS / Fold change vs veh, MARS / RFU, ZNF655 / Fold change vs veh, ZNF655 / RFU, FAHD1 / Fold change vs veh, FAHD1 / RFU, BDP1 / Fold change vs veh, BDP1 / RFU, LRRCC1 / Fold change vs veh, LRRCC1 / RFU, ARID1A / Fold change vs veh, ARID1A / RFU, ZNF146 / Fold change vs veh, ZNF146 / RFU, ZNF330 / Fold change vs veh, ZNF330 / RFU, GPN3 / Fold change vs veh, GPN3 / RFU, C9orf123 / Fold change vs veh, C9orf123 / RFU, N4BP2L2 / Fold change vs veh, N4BP2L2 / RFU, ARFIP1 / Fold change vs veh, ARFIP1 / RFU, FAM179B / Fold change vs veh, FAM179B / RFU, BCL10 / Fold change vs veh, BCL10 / RFU, UHRF1BP1L / Fold change vs veh, UHRF1BP1L / RFU, BET1 / Fold change vs veh, BET1 / RFU, CNOT2 / Fold change vs veh, CNOT2 / RFU, ZNF268 / Fold change vs veh, ZNF268 / Fold change vs veh, ZNF507 / RFU, DGCR2 / Fold change vs veh, DGCR2 / RFU, WDSUB1 / Fold change vs veh, WDSUB1 / Fold change vs veh, HSP90B1 /// MIR3652 / RFU, ADSS / Fold change vs veh, ADSS / RFU, GK / Fold change vs veh, GK / RFU, ZNF148 / Fold change vs veh, ZNF148 / RFU, TAF9 / Fold change vs veh, TAF9 / RFU, SLC1A5 / Fold change vs veh, SLC1A5 / RFU, SLMO2 / Fold change vs veh, SLMO2 / RFU, ABCC4 / Fold change vs veh, ABCC4 / RFU, LOC101060439 /// RAP1B / Fold change vs veh, LOC101060439 /// RAP1B / RFU, RFX7 / Fold change vs veh, RFX7 / RFU, GTPBP10 / Fold change vs veh, GTPBP10 / RFU, CNEP1R1 / Fold change vs veh, CNEP1R1 / RFU, BIVM-ERCC5 /// ERCC5 / Fold change vs veh, BIVM-ERCC5 /// ERCC5 / RFU, ILF3 / Fold change vs veh, ILF3 / RFU 11762660_at / Fold change /veh 11762660_at / RFU VCAN (11757783_s_at) / Fold change /veh VCAN (11757783_s_at) / RFU DDX43 (11728927_at) / Fold change /veh DDX43 (11728927_at) / RFU KRT8 (11758188_x_at) / Fold change /veh KRT8 (11758188_x_at) / RFU NKD1 (11759106_at) / Fold change /veh NKD1 (11759106_at) / RFU SRD5A1 (11742802_a_at) / Fold change /veh SRD5A1 (11742802_a_at) / RFU TPSAB1 /// TPSB2 (11721975_s_at) / Fold change /veh TPSAB1 /// TPSB2 (11721975_s_at) / RFU GSTM3 (11746129_a_at) / Fold change /veh GSTM3 (11746129_a_at) / RFU IL23R (11737362_x_at) / Fold change /veh IL23R (11737362_x_at) / RFU TMEM51 (11727254_a_at) / Fold change /veh TMEM51 (11727254_a_at) / RFU PIWIL2 (11732686_x_at) / Fold change /veh PIWIL2 (11732686_x_at) / RFU ORM1 (11744905_x_at) / Fold change /veh ORM1 (11744905_x_at) / RFU CCDC152 (11743942_at) / Fold change /veh CCDC152 (11743942_at) / RFU ECM1 (11717891_a_at) / Fold change /veh ECM1 (11717891_a_at) / RFU IL23R (11748794_a_at) / Fold change /veh IL23R (11748794_a_at) / RFU TNFAIP8L3 (11732012_x_at) / Fold change /veh TNFAIP8L3 (11732012_x_at) / RFU MBOAT4 (11741988_at) / Fold change /veh MBOAT4 (11741988_at) / RFU 11764193_at / Fold change /veh 11764193_at / RFU TMEM53 (11763286_at) / Fold change /veh TMEM53 (11763286_at) / RFU MAGEB2 (11727129_at) / Fold change /veh MAGEB2 (11727129_at) / RFU TMEM200A (11744735_a_at) / Fold change /veh TMEM200A (11744735_a_at) / RFU CCDC152 (11751479_a_at) / Fold change /veh CCDC152 (11751479_a_at) / RFU FAM211A (11726209_a_at) / Fold change /veh FAM211A (11726209_a_at) / RFU RGS16 (11746705_a_at) / Fold change /veh RGS16 (11746705_a_at) / RFU VCAN (11755009_s_at) / Fold change /veh VCAN (11755009_s_at) / RFU RHOB (11743442_s_at) / Fold change /veh RHOB (11743442_s_at) / RFU RGS16 (11720943_a_at) / Fold change /veh RGS16 (11720943_a_at) / RFU RGS16 (11720944_at) / Fold change /veh RGS16 (11720944_at) / RFU, VPS4B / Fold change vs veh, VPS4B / RFU, CREB1 / Fold change vs veh, CREB1 / RFU, DNAJC13 / Fold change vs veh, DNAJC13 / RFU, GNAQ / Fold change vs veh, GNAQ / RFU, CDK5R1 / Fold change vs veh, CDK5R1 / RFU, ZRANB3 / Fold change vs veh, ZRANB3 / RFU, CUL4A / Fold change vs veh, CUL4A / RFU, CCNY / Fold change vs veh, CCNY / RFU, UFL1 / Fold change vs veh, UFL1 / RFU, COG3 / Fold change vs veh, COG3 / RFU, DIAPH2 / Fold change vs veh, DIAPH2 / RFU, SKA2 / Fold change vs veh, SKA2 / RFU, AFF3 / Fold change vs veh, AFF3 / RFU, LMF1 / Fold change vs veh, LMF1 / RFU, IPO11 / Fold change vs veh, IPO11 / RFU, DFFB / Fold change vs veh, DFFB / RFU, FOXP1 / Fold change vs veh, FOXP1 / RFU, CARD8 / Fold change vs veh, CARD8 / RFU, STRN3 / Fold change vs veh, STRN3 / RFU, ADK / Fold change vs veh, ADK / RFU, RASSF2 / Fold change vs veh, RASSF2 / RFU, WIPF1 / Fold change vs veh, WIPF1 / RFU, LARP1B / Fold change vs veh, LARP1B / RFU, RASA1 / Fold change vs veh, RASA1 / RFU, RB1 / Fold change vs veh, RB1 / RFU, PPFIA1 / Fold change vs veh, PPFIA1 / RFU, MAT2A / Fold change vs veh, MAT2A / RFU, CCT5 / Fold change vs veh, CCT5 / RFU, WDR92 / Fold change vs veh, WDR92 / RFU, CUX1 / Fold change vs veh, CUX1 / RFU, TTC7A / Fold change vs veh, TTC7A / RFU, TMEM135 / Fold change vs veh, TMEM135 / RFU, DEPTOR / Fold change vs veh, DEPTOR / RFU, CPM / Fold change vs veh, CPM / RFU, DNAJB6 / Fold change vs veh, DNAJB6 / RFU, CACNA2D3 / Fold change vs veh, CACNA2D3 / RFU, DTX4 / Fold change vs veh, DTX4 / RFU, TFCP2 / Fold change vs veh, TFCP2 / RFU, GMCL1 /// GMCL1P1 / Fold change vs veh, GMCL1 /// GMCL1P1 / RFU, AEBP2 / Fold change vs veh, AEBP2 / RFU, SNHG1 /// SNORD22 /// SNORD25 /// SNORD26 /// SNORD27 /// SNORD28 /// SNORD29 /// SNORD31 / Fold change vs veh, SNHG1 /// SNORD22 /// SNORD25 /// SNORD26 /// SNORD27 /// SNORD28 /// SNORD29 /// SNORD31 / Fold change (Aza/veh), C12orf56 (ProbeSet 11735607_a_at) / Fold change (ACY-1035/veh), C12orf56 (ProbeSet 11735607_a_at) / Fold change (Aza/veh), FGFR1OP (ProbeSet 11751329_s_at) / Fold change (ACY-1035/veh), FGFR1OP (ProbeSet 11751329_s_at) / Fold change (Aza/veh), VPS36 (ProbeSet 11739960_a_at) / Fold change (ACY-1035/veh), VPS36 (ProbeSet 11739960_a_at) / RFU SYPL1 (11715823_x_at) / Fold change /veh SYPL1 (11715823_x_at) / RFU IGFBP7 (11715501_s_at) / Fold change /veh IGFBP7 (11715501_s_at) / RFU REEP3 (11722064_at) / Fold change /veh REEP3 (11722064_at) / RFU IGLL1 (11728026_x_at) / Fold change /veh IGLL1 (11728026_x_at): dose or concentration left out as unconfirmed
Conditions: ProbeSet 11716931_at; LIST B

Nc1ncn([C@@H]2O[C@H](CO)[C@@H](O)[C@H]2O)c(=O)n1 [azacitidine]
RFU, DGCR2: 177.81 RFU
